In the NIST ThermoML archive (doi:10.1021/je400783h):

Test: refractive index (Na D-line) (dimensionless)
Conditions: 101.33 kPa, Liquid, Standard Abbe refractometry

OCC1CCCO1 (stereo unspecified) [2-tetrahydrofurylmethanol]
Conditions | refractive index
283.15 K | 1.45646
285.65 K | 1.45549
288.15 K | 1.45452
290.65 K | 1.45356
293.15 K | 1.45259
295.65 K | 1.45162
298.15 K | 1.45063
300.65 K | 1.44965
303.15 K | 1.44867
305.65 K | 1.44769
308.15 K | 1.44671
310.65 K | 1.44572
313.15 K | 1.44473
315.65 K | 1.44375
318.15 K | 1.44274
320.65 K | 1.44176
323.15 K | 1.44072
325.65 K | 1.4397
328.15 K | 1.43871
330.65 K | 1.43772
333.15 K | 1.43668
335.65 K | 1.43567
338.15 K | 1.43466

Cc1ccc(C=O)o1 [5-methylfurfural]
Conditions | refractive index
283.15 K | 1.5364
285.65 K | 1.53529
288.15 K | 1.53393
290.65 K | 1.53269
293.15 K | 1.53144
295.65 K | 1.53019
298.15 K | 1.5289
300.65 K | 1.52765
303.15 K | 1.5264
305.65 K | 1.52513
308.15 K | 1.52385
310.65 K | 1.52257
313.15 K | 1.5213
315.65 K | 1.52
318.15 K | 1.51872
320.65 K | 1.51742
323.15 K | 1.51615
325.65 K | 1.51486
328.15 K | 1.51357
330.65 K | 1.51229
333.15 K | 1.511
335.65 K | 1.50972
338.15 K | 1.50842
